Results taken from patent US11084800B2 (Achillion Pharmaceuticals, Inc., priority 2017, dated 2021).
pIC50: −log10 of the molar value.

Each molecule was assayed against Human Factor D (Homo sapiens (Human), UniProt P00746) (assay: Human Factor D Assay). Settings: Table 6; Factor D 80 nM, substrate Z-L-Lys-SBz; read-out: IC50.
Chain of Human Factor D (P00746 26-253): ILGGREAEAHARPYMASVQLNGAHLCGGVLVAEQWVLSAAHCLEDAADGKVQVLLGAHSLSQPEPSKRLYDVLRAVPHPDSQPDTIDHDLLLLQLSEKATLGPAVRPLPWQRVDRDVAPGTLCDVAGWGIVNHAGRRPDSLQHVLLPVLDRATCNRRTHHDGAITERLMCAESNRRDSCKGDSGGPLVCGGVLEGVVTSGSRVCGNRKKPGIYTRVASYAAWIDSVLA
Type: biochemical
Method in brief: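 Thioester substrate Z-L-Lys-SBz (100 μM) with Ellman's reagent DTNB (100 μM) reports activity of 80 nM human serum-derived enzyme, kinetically at 405 nm over 30 min. Compound preincubated 5 min, room temperature, pH 7.5 Tris/1 M NaCl; IC50 by nonlinear fit of rates.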
For Cc1ncc(-c2ccc3c(c2)c(C(C)O)nn3CC(=O)N2[C@H](C(=O)Nc3nc(Br)ccc3C)C[C@@]3(C)C[C@@H]23)cn1 (stereo partly drawn) [Compound 72, (1R,3S,5R)-N-(6-bromo-3-methylpyridin-2-yl)-2-(2-(3-(1-hydroxyethyl)-5-(2-methylpyrimidin-5-yl)-1H-indazol-1-yl)acetyl)-5-methyl-2-azabicyclo[3.1.0]hexane-3-carboxamide], the pIC50 was 5.00 to 6.00. CC(=O)c1nn(CC(=O)N2[C@H](C(=O)Nc3nc(Br)cc4ccccc34)C[C@@]3(C)C[C@@H]23)c2ccc(-c3cnc(C)nc3)cc12 [Compound 73, (1R,3S,5R)-2-(2-(3-Acetyl-5-(2-methylpyrimidin-5-yl)-1H-indazol-1-yl)acetyl)-N-(3-bromoisoquinolin-1-yl)-5-methyl-2-azabicyclo[3.1.0]hexane-3-carboxamide] was tested, and the pIC50 was greater than 6.00. For CC(=O)c1nn(CC(=O)N2[C@H](C(=O)Nc3nc(Br)ccc3C)C[C@@]3(CN(C)C)C[C@@H]23)c2c(CF)cc(-c3cnc(C)nc3)cc12 [Compound 74, (1R,3S,5R)-2-(2-(3-Acetyl-7-(fluoromethyl)-5-(2-methylpyrimidin-5-yl)-1H-indazol-1-yl)acetyl)-N-(6-bromo-3-methylpyridin-2-yl)-5-((dimethylamino)methyl)-2-azabicyclo[3.1.0]hexane-3-carboxamide], the pIC50 was greater than 6.00. With CC(=O)c1nn(CC(=O)N2[C@H]3C[C@@]3(CN(C)C)C[C@H]2C(=O)Nc2nc(Br)ccc2C)c2c(CF)cc(-c3cnc(C)nc3)cc12 [Compound 75, (1S,3S,5S)-2-(2-(3-Acetyl-7-(fluoromethyl)-5-(2-methylpyrimidin-5-yl)-1H-indazol-1-yl)acetyl)-N-(6-bromo-3-methylpyridin-2-yl)-5-((dimethylamino)methyl)-2-azabicyclo[3.1.0]hexane-3-carboxamide] the pIC50 was greater than 6.00. For CC(=O)c1nn(CC(=O)N2C[C@@](F)(CF)C[C@H]2C(=O)Nc2nc(Br)ccc2C)c2c(CF)cc(-c3cnc(C)nc3)cc12 [Compound 76, (2S,4R)-1-(2-(3-acetyl-7-(fluoromethyl)-5-(2-methylpyrimidin-5-yl)-1H-indazol-1-yl)acetyl)-N-(6-bromo-3-methylpyridin-2-yl)-4-fluoro-4-(fluoromethyl)pyrrolidine-2-carboxamide], the pIC50 was greater than 6.00. Molecule CC(=O)c1nn(CC(=O)N2[C@H]3C[C@@]3(C)C[C@H]2C(=O)Nc2nc(Br)ccc2C)c2c(C(F)(F)F)cc(-c3cnc(C)nc3)cc12 [Compound 77, (1S,3S,5S)-2-(2-(3-acetyl-5-(2-methylpyrimidin-5-yl)-7-(trifluoromethyl)-1H-indazol-1-yl)acetyl)-N-(6-bromo-3-methylpyridin-2-yl)-5-methyl-2-azabicyclo[3.1.0]hexane-3-carboxamide] has a pIC50 of less than 5.00. Molecule CC(=O)c1nn(CC(=O)N2[C@H](C(=O)Nc3nc(Br)ccc3C)C[C@@]3(CN4CCN(C(C)=O)CC4)C[C@@H]23)c2ccc(-c3cnc(C)nc3)cc12 [Compound 78, (1R,3S,5R)-2-(2-(3-acetyl-5-(2-methylpyrimidin-5-yl)-1H-indazol-1-yl)acetyl)-5-((4-acetylpiperazin-1-yl)methyl)-N-(6-bromo-3-methylpyridin-2-yl)-2-azabicyclo[3.1.0]hexane-3-carboxamide] has a pIC50 greater than 6.00. CC(=O)c1nn(CC(=O)N2[C@H]3C[C@@]3(CN3CCN(C(C)=O)CC3)C[C@H]2C(=O)Nc2nc(Br)ccc2C)c2ccc(-c3cnc(C)nc3)cc12 [Compound 79, (1S,3S,5S)-2-(2-(3-acetyl-5-(2-methylpyrimidin-5-yl)-1H-indazol-1-yl)acetyl)-5-((4-acetylpiperazin-1-yl)methyl)-N-(6-bromo-3-methylpyridin-2-yl)-2-azabicyclo[3.1.0]hexane-3-carboxamide] gave a pIC50 of 5.00 to 6.00. CC(=O)c1nn(CC(=O)N2[C@H](C(=O)NCCC(C)(C)C)C[C@@]3(C)C[C@@H]23)c2c(C)cc(-c3cnc(C)nc3)cc12 [Compound 80, (1R,3S,5R)-2-(2-(3-Acetyl-7-methyl-5-(2-methylpyrimidin-5-yl)-1H-indazol-1-yl)acetyl)-N-(3,3-dimethylbutyl)-5-methyl-2-azabicyclo[3.1.0]hexane-3-carboxamide] gave a pIC50 greater than 6.00. Work on CC(=O)c1nn(CC(=O)N2[C@H](C(=O)NCCOC(F)(F)F)C[C@@]3(C)C[C@@H]23)c2c(C)cc(-c3cnc(C)nc3)cc12 [Compound 81, (1R,3S,5R)-2-(2-(3-Acetyl-7-methyl-5-(2-methylpyrimidin-5-yl)-1H-indazol-1-yl)acetyl)-5-methyl-N-(2-(trifluoromethoxy)ethyl)-2-azabicyclo[3.1.0]hexane-3-carboxamide] yielded a pIC50 greater than 6.00. COc1cccc(NC(=O)[C@@H]2C[C@@]3(C)C[C@H]3N2C(=O)Cn2nc(C(C)=O)c3cc(-c4cnc(C)nc4)cc(C)c32)n1 [Compound 82, (1R,3S,5R)-2-(2-(3-Acetyl-7-methyl-5-(2-methylpyrimidin-5-yl)-1H-indazol-1-yl)acetyl)-N-(6-methoxypyridin-2-yl)-5-methyl-2-azabicyclo[3.1.0]hexane-3-carboxamide] gave a pIC50 greater than 6.00. CC(=O)c1nn(CC(=O)N2C[C@H](F)C[C@H]2C(=O)Nc2cccc(O)n2)c2ccc(-c3cnc(C)nc3)cc12 [Compound 83, (2S,4R)-1-(2-(3-Acetyl-5-(2-methylpyrimidin-5-yl)-1H-indazol-1-yl)acetyl)-4-fluoro-N-(6-hydroxypyridin-2-yl)pyrrolidine-2-carboxamide] showed a pIC50 of 5.00 to 6.00. COCc1ccc(Br)c(NC(=O)[C@@H]2C[C@@]3(C)C[C@H]3N2C(=O)Cn2nc(C(C)=O)c3cc(-c4cnc(C)nc4)cc(COC)c32)n1 [Compound 86, (1R,3S,5R)-2-(2-(3-acetyl-7-(methoxymethyl)-5-(2-methylpyrimidin-5-yl)-1H-indazol-1-yl)acetyl)-N-(3-bromo-6-(methoxymethyl)pyridin-2-yl)-5-methyl-2-azabicyclo[3.1.0]hexane-3-carboxamide] was tested, and the pIC50 was less than 5.00. Molecule CC(=O)c1nn(CC(=O)N2[C@H](C(=O)Nc3nc(Br)ccc3C)C[C@@]3(CN4CCNCC4)C[C@@H]23)c2c(C)cc(-c3cnc(C)nc3)cc12 [Compound 88, (1R,3S,5R)-2-(2-(3-Acetyl-7-methyl-5-(2-methylpyrimidin-5-yl)-1H-indazol-1-yl)acetyl)-N-(6-bromo-3-methylpyridin-2-yl)-5-(piperazin-1-ylmethyl)-2-azabicyclo[3.1.0]hexane-3-carboxamide] has a pIC50 greater than 6.00. CC(=O)c1nn(CC(=O)N2[C@H](C(=O)Nc3nc(Br)ccc3C)C[C@@]3(CN4CC5(CCC5)C4)C[C@@H]23)c2c(C)cc(-c3cnc(C)nc3)cc12 [Compound 89, (1R,3S,5R)-5-(2-Azaspiro[3.3]heptan-2-ylmethyl)-2-(2-(3-acetyl-7-methyl-5-(2-methylpyrimidin-5-yl)-1H-indazol-1-yl)acetyl)-N-(6-bromo-3-methylpyridin-2-yl)-2-azabicyclo[3.1.0]hexane-3-carboxamide] gave a pIC50 greater than 6.00. Molecule CC(=O)c1nn(CC(=O)N2[C@H]3C[C@@]3(C)C[C@H]2C(=O)Nc2nc(Br)ccc2C)c2c(C3CC3)cc(-c3cnc(C)nc3)cc12 [Compound 90, (1S,3S,5S)-2-(2-(3-acetyl-7-cyclopropyl-5-(2-methylpyrimidin-5-yl)-1H-indazol-1-yl)acetyl)-N-(6-bromo-3-methylpyridin-2-yl)-5-methyl-2-azabicyclo[3.1.0]hexane-3-carboxamide] has a pIC50 greater than 6.00. CC(=O)c1nn(CC(=O)N2[C@H](C(=O)Nc3nc(Br)ccc3CN(C)C)C[C@@]3(C)C[C@@H]23)c2ccc(-c3cnc(C)nc3)cc12 [Compound 91] gave a pIC50 greater than 6.00. With C=CCOC[C@@]12C[C@@H](C(=O)Nc3nc(Br)ccc3C=C)N(C(=O)Cn3nc(C(C)=O)c4cc(-c5cnc(C)nc5)ccc43)[C@@H]1C2 [Compound 93, (1R,3S,5S)-2-(2-(3-Acetyl-5-(2-methylpyrimidin-5-yl)-1H-indazol-1-yl)acetyl)-5-((allyloxy)methyl)-N-(6-bromo-3-vinylpyridin-2-yl)-2-azabicyclo[3.1.0]hexane-3-carboxamide] the pIC50 was greater than 6.00. In the case of CNC[C@@]12C[C@@H](C(=O)Nc3nc(Br)ccc3C)N(C(=O)Cn3nc(C(C)=O)c4cc(-c5cnc(C)nc5)cc(C)c43)[C@@H]1C2 [Compound 94, (1R,3S,5R)-2-(2-(3-Acetyl-7-methyl-5-(2-methylpyrimidin-5-yl)-1H-indazol-1-yl)acetyl)-N-(6-bromo-3-methylpyridin-2-yl)-5-((methylamino)methyl)-2-azabicyclo[3.1.0]hexane-3-carboxamide], the pIC50 was greater than 6.00. With CC(=O)c1nn(CC(=O)N2[C@H](C(=O)Nc3nc(Br)ccc3C)C[C@@]3(CNC(=O)C4=C(F)CCC4)C[C@@H]23)c2c(C)cc(-c3cnc(C)nc3)cc12 [Compound 95, (1R,3S,5R)-2-(2-(3-Acetyl-7-methyl-5-(2-methylpyrimidin-5-yl)-1H-indazol-1-yl)acetyl)-N-(6-bromo-3-methylpyridin-2-yl)-5-((2-fluorocyclopent-1-enecarboxamido)methyl)-2-azabicyclo[3.1.0]hexane-3-carboxamide] the pIC50 was greater than 6.00. Molecule CC(=O)NC[C@@]12C[C@@H](C(=O)Nc3nc(Br)ccc3C)N(C(=O)Cn3nc(C(C)=O)c4cc(-c5cnc(C)nc5)cc(C)c43)[C@@H]1C2 [Compound 96, (1R,3S,5R)-5-(Acetamidomethyl)-2-(2-(3-acetyl-7-methyl-5-(2-methylpyrimidin-5-yl)-1H-indazol-1-yl)acetyl)-N-(6-bromo-3-methylpyridin-2-yl)-2-azabicyclo[3.1.0]hexane-3-carboxamide] has a pIC50 greater than 6.00. Work on CC(=O)c1nn(CC(=O)N2[C@H](C(=O)Nc3nc(Br)ccc3C)C[C@@]3(CNC(=O)c4ccccc4F)C[C@@H]23)c2c(C)cc(-c3cnc(C)nc3)cc12 [Compound 97, (1R,3S,5R)-2-(2-(3-Acetyl-7-methyl-5-(2-methylpyrimidin-5-yl)-1H-indazol-1-yl)acetyl)-N-(6-bromo-3-methylpyridin-2-yl)-5-((2-fluorobenzamido)methyl)-2-azabicyclo[3.1.0]hexane-3-carboxamide] yielded a pIC50 greater than 6.00.
